Source: ChEMBL document CHEMBL3593231, “3,5-Diarylpyrazole Derivatives Obtained by Ammonolysis of the Total Flavonoids from Chrysanthemum indicum Extract Show Potential for the Treatment of Alzheimer's Disease” (J Nat Prod, 2015)
Calls of active or inactive are those of the source. No cut-off for these calls is given here.

Assays:
[1] = biological target: T1, Amyloid-beta precursor protein (Homo sapiens, UniProt P05067); experiment: Inhibition of amyloid beta (1 to 42) (unknown origin) aggregation after 48 hrs by thioflavin T fluorescence assay
SH-SY5Y [2] = experiment: Cytotoxicity against human SH-SY5Y cells assessed as cell viability at 10 uM after 48 hrs by MTT assay; type: cell-based
[3] = biological target: T1, Amyloid-beta precursor protein; experiment: Potency index, ratio of curcumin IC50 to compound IC50 for inhibition of amyloid beta (1 to 42) (unknown origin) aggregation
SH-SY5Y [4] = experiment: Neuroprotective activity against amyloid beta (1 to 42)-induced cytotoxicity in human SH-SY5Y cells at 5 to 80 uM after 48 hrs by MTT assay; type: functional, cell-based

T1 sequence (P05067 whole entry): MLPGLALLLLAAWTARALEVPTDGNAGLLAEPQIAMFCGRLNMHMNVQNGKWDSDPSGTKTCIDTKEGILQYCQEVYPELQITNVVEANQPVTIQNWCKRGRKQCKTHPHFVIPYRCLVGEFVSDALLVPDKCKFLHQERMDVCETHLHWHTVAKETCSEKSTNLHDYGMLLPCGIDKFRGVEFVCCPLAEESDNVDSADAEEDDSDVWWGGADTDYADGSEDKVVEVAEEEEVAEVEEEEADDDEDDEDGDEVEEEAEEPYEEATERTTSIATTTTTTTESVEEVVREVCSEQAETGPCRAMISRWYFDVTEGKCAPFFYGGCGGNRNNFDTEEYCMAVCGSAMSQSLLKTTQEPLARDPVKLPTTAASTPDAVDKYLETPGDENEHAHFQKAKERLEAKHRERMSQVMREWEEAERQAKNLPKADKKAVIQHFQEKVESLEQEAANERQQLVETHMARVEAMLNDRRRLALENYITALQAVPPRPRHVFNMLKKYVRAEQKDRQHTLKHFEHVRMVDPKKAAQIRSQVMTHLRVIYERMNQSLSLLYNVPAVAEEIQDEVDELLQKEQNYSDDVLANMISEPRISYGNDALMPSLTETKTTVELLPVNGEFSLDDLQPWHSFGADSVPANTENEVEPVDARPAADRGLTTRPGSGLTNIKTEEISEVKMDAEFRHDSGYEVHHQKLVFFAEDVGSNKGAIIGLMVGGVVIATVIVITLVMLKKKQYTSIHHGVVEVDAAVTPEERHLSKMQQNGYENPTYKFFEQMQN

COc1cc(-c2cc(-c3c(O)cccc3O)[nH]n2)cc(OC)c1O
IC50 [1]: 2.9 µM | Activity (SH-SY5Y [2]): Non-toxic

Oc1ccc(-c2cc(-c3c(O)cccc3O)[nH]n2)cc1
IC50 [1]: 15.8 µM

COc1cc(-c2cc(-c3c(O)cccc3O)[nH]n2)ccc1O
IC50 [1]: 4.3 µM | Activity (SH-SY5Y [2]): Non-toxic

Oc1ccc(-c2cc(-c3c(O)cccc3O)[nH]n2)cc1O
IC50 [1]: 1.3 µM | Ratio IC50 [3]: 3 | Activity (SH-SY5Y [2]): Non-toxic | Activity (SH-SY5Y [4]): Active
